Earlier results on 1 compound are cited in US20210244680A1, “WEARABLE LIPOSOMAL CANNABIDIOL TRANSDERMAL PATCH” (priority 2020, published 2021).

The subject of this series is rats with arthritis. The note with it: topical gel containing CBD applied to rats with arthritis for 4 days.

As for `C=C(C)[C@@H]1CCC(C)=C[C@H]1c1c(O)cc(CCCCC)cc1O` [CBD, Cannabidiol], the “inflammation and signs of pain” value is “significant drop in inflammation and signs of pain”; the side effects entry is “without additional side effects”.
